Assay results reported in paper doi:10.1101/2020.11.09.375162v1 (biorxiv, 2020).
Read-outs that look alike come from different tables or passages of the source.

Legend:
[1] = target: T1, human CB2 receptor (hCB2) (Homo sapiens, UniProt P34972); assay: PathHunter beta-arrestin recruitment, CHO-K1; assay type: cell-based
[2] = target: T2, mouse CB2 receptor (mCB2) (Mus musculus, UniProt P47936); assay: cAMP assay, CHO cells; assay type: cell-based; settings: agonist
[3] = target: T3, human CB1 receptor (hCB1) (Homo sapiens, UniProt P21554); assay: PathHunter beta-arrestin recruitment, CHO-K1; assay type: cell-based
[4] = target: T3, human CB1 receptor (hCB1); assay: [3H]-CP55940 competition, membranes; assay type: binding
[5] = target: T1, human CB2 receptor (hCB2); settings: Gi1 activation
[6] = target: T1, human CB2 receptor (hCB2); settings: Gi2 activation
[7] = target: T1, human CB2 receptor (hCB2); settings: Gi3 activation
[8] = target: T1, human CB2 receptor (hCB2); settings: GoA activation
[9] = target: T1, human CB2 receptor (hCB2); settings: GoB activation
[10] = target: T1, human CB2 receptor (hCB2); settings: beta-arrestin1 recruitment
[11] = target: T1, human CB2 receptor (hCB2); settings: beta-arrestin2 recruitment
[12] = target: T3, human CB1 receptor (hCB1); assay: biochemical
[13] = target: T1, human CB2 receptor (hCB2); assay: cell-based; settings: read-out: cAMP Emax hCB2
[14] = target: T3, human CB1 receptor (hCB1); assay: cell-based; settings: read-out: cAMP Emax hCB1
[15] = target: T2, mouse CB2 receptor (mCB2); assay: cell-based; settings: read-out: cAMP Emax mCB2
[16] = target: T1, human CB2 receptor (hCB2); assay: [3H]-CP55940 competition, membranes; assay type: binding
[17] = target: T2, mouse CB2 receptor (mCB2); assay: [3H]-CP55940 competition, membranes; assay type: binding
[18] = target: T2, mouse CB2 receptor (mCB2); assay: cell-based
[19] = target: T3, human CB1 receptor (hCB1); assay: [3H]-CP55940 competition, membranes; assay type: binding; remark: listed apart in the source
[20] = target: T3, human CB1 receptor (hCB1); assay: cAMP assay, CHO cells; assay type: cell-based; settings: agonist
[21] = target: T2, mouse CB2 receptor (mCB2); assay: biochemical
[22] = target: T3, human CB1 receptor (hCB1); assay: cell-based
[23] = target: T2, mouse CB2 receptor (mCB2); assay: cAMP assay, CHO cells; assay type: cell-based

T2 sequence (P47936 whole entry): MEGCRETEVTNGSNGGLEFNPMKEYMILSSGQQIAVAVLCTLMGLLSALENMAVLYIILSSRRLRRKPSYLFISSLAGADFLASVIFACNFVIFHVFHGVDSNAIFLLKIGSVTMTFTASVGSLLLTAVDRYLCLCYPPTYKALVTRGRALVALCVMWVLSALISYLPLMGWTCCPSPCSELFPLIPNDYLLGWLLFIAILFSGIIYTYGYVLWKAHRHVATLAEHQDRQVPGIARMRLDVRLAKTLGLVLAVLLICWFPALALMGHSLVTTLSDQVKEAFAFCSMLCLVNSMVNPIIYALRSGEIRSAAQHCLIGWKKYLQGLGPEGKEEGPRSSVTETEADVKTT
T1 sequence (P34972 whole entry): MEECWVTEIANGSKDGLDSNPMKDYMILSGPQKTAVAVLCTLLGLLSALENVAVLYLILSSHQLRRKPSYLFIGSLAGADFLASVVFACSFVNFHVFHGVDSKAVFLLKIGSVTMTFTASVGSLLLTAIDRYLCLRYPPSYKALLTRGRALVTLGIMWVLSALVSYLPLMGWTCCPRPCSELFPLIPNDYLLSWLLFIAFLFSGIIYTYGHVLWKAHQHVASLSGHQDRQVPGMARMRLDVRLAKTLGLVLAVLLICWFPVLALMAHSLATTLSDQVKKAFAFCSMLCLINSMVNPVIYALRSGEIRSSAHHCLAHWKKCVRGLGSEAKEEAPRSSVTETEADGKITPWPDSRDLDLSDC
T3 sequence (P21554 whole entry): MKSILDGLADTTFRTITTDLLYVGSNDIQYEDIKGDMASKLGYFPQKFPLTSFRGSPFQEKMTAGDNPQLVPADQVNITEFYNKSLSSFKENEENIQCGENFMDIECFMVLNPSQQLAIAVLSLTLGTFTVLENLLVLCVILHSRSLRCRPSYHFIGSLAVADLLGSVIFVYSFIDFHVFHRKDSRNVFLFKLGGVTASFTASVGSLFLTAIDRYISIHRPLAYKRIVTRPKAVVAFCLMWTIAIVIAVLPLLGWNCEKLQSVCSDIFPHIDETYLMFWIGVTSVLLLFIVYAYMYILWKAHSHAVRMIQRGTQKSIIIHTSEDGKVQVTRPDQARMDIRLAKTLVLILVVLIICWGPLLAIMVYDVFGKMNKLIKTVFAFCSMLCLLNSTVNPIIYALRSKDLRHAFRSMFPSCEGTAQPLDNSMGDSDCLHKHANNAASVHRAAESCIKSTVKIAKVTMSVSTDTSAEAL

Structure (SMILES): CN1CCCCC1Cn1cc(C(=O)c2cc([N+](=O)[O-])ccc2I)c2ccccc21 (racemic) [(rac)-AM1241]
- EC50 [1]: > 10 µM

Structure (SMILES): CCCCCCC(C)(C)c1ccc([C@@H]2C[C@H](O)CC[C@H]2CCCO)c(O)c1 [CP55940]
- cAMP pEC50 [2]: 10.17

Structure (SMILES): CCCCCCC(C)(C)c1cc(OC)c([C@@H]2C=C(CO)[C@@H]3C[C@H]2C3(C)C)c(OC)c1 [HU308]
- EC50 [3]: > 10 µM
- Ki [4]: > 10 µM

Structure (SMILES): CCN1CCN(c2nc(C3CC3)nc3c2nnn3Cc2ccccc2Cl)CC1 [RO6435559]
- Gi1 pEC50 [5]: 7.984 M
- Gi2 pEC50 [6]: 8.154 M
- Gi3 pEC50 [7]: 7.941 M
- GoA pEC50 [8]: 7.998 M
- GoB pEC50 [9]: 7.794 M
- β-arrestin1 pEC50 [10]: 8.518 M
- β-arrestin2 pEC50 [11]: 8.131 M

Structure (SMILES): CCOC(=O)C(CC)(CC)NC(=O)c1ccc(N2CCCC2)c(OCC2CC2)n1 [RO6843766]
- Ki [12]: 0.617 µM
- Emax [13]: 91%
- Emax [14]: 59%
- Emax [15]: 61%

Structure (SMILES): CN1CCN(c2nc(C(C)(C)C)nc3c2nnn3Cc2ccccc2Cl)CC1 [RO6844395]
- pKi [16]: 7.67
- pKi [17]: 6.87
- pKi hCB1 ([12]; binder): 5.76 M
- Emax [13]: 99%
- Emax [14]: 57%
- cAMP pEC50 mCB2 ([18]; cAMP, agonist): 7.30 M
- Emax [15]: 80%
- Gi1 pEC50 [5]: 7.855 M
- Gi2 pEC50 [6]: 7.499 M
- Gi3 pEC50 [7]: 7.994 M
- GoA pEC50 [8]: 7.607 M

Structure (SMILES): CCOC(=O)[C@H](CC(C)C)NC(=O)c1ccc(C2CC2)c(Cc2ccc(F)cc2)n1 [RO6853973]
- pKi [19]: 8.21
- pKi [16]: 9.45
- cAMP pEC50 [20]: 8.12
- Ki [21]: 0.676 nM
- Emax [13]: 45%
- Emax [14]: 83%
- EC50 [18]: > 10 µM
- Emax [15]: 23%

Structure (SMILES): O=S(=O)(Cc1ccccc1)c1nc(N2CCC(F)(F)C2)c2nnn(Cc3ccccc3Cl)c2n1 [RO6871487]
- Ki [12]: 4.57 µM
- Ki [21]: 6.92 nM
- Emax [13]: 52%
- EC50 [22]: > 10 µM
- Emax [14]: 9%
- EC50 [18]: > 10 µM
- Emax [15]: 24%

Structure (SMILES): OCCSc1nc(N2CCC(F)(F)C2)c2nnn(Cc3ccccc3Cl)c2n1 [RO6878558]
- pKi [16]: 6.94
- Ki [12]: > 10 µM
- Emax [13]: 87%
- EC50 [22]: > 10 µM
- Emax [14]: 20%
- Emax [15]: 92%

Structure (SMILES): CC(C)(C)c1noc(-c2ccc(C3CC3)c(Cc3ccc(F)cc3)n2)n1 [RO6892033, 6-(3-tert-Butyl-1,2,4-oxadiazol-5-yl)-3-cyclopropyl-2-[(4-fluorophenyl)methyl]pyridine]
- EC50 [23]: 4.07 nM
- Ki [21]: 7.59 nM
- Emax [13]: 66%
- Emax [14]: 70%
- Emax [15]: 45%

Structure (SMILES): CC(C)(C)c1nc(-c2cc(OCc3ccc(F)cc3)c(C3CC3)c(Cl)n2)no1 [RO6926274]
- cAMP pEC50 [23]: < 5
